Experimental data reported in the supplement of paper PMC10307832.

compound: CC(C)CCN1c2nc(Nc3cc(F)c(O)c(F)c3)ncc2N(C)C(=O)C1C [BI-D1870] + Cc1cc(Nc2cc(N3CCN(C)CC3)nc(Sc3ccc(NC(=O)C4CC4)cc3)n2)n[nH]1 [Tozasertib] (partner 0.1 µM); experiment: relative viability (nuclei count vs DMSO), 5 days (fraction); higher = more cells survive; settings: first compound 4 µM
Method in brief: (§1)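 Lung cancer cell lines in 1536-well plates were dosed by pin tool the day after seeding, either with one drug alone or with a fixed anchor-drug dose plus five library-drug doses (not always all listed) in √10 steps. After 5 days, cells were fixed and their nuclei stained in one step (final 0.05% Triton X-100, 1% formaldehyde, 1 ug/ml Hoechst), then counted on 4× images. Relative viability is the nuclei count in treated wells divided by that in vehicle wells. Values are medians of duplicate plates.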

Row | Cell Line | relative viability
1 | NCI-H1437 | 0.363
2 | NCI-H1755 | 0.531

compound: O=c1ncccn1[C@@H]1O[C@H](CO)[C@@H](O)[C@H]1O [Zebularine] + Cc1nc(NC(=O)N2CCC[C@H]2C(N)=O)sc1-c1ccnc(C(C)(C)C(F)(F)F)c1 [Alpelisib] (partner 2 µM); experiment: as above; settings: first compound 1 µM
Method in brief: as §1

Row | Cell Line | relative viability
3 | LK-2 | 1.15
4 | NCI-H2087 | 1.31
5 | H3255 | 0.664
6 | LOU-NH91 | 0.703
7 | NCI-H2170 | 0.85
8 | NCI-H2405 | 0.749
9 | HOP-62 | 0.932
10 | LU99A | 0.58
11 | BEN | 0.991
12 | HARA | 1.01
13 | HCC-78 | 0.358
14 | NCI-H322M | 0.732
15 | LCLC-97TM1 | 0.23
16 | A-427 | 1.08
17 | NCI-H441 | 0.779
18 | NCI-H1734 | 0.738

Row | Cell Line | relative viability
19 | NCI-H460 | 0.519
20 | NCI-H2347 | 1.02
21 | NCI-H1395 | 1.32
22 | 201T | 1.07
23 | NCI-H1915 | 1.18
24 | HCC-827 | 1.02
25 | LXF-289 | 1.08
26 | NCI-H23 | 0.577
27 | NCI-H647 | 1.05
28 | CAL-12T | 1.49
29 | NCI-H1651 | 0.875
30 | EPLC-272H | 0.975
31 | NCI-H1355 | 0.856
32 | NCI-H3122 | 0.991
33 | NCI-H1437 | 1.16
34 | NCI-H1755 | 1.07

same assay, conditions: first compound 3.162 µM

Row | Cell Line | relative viability
35 | LK-2 | 1.29
36 | NCI-H2087 | 1.01
37 | H3255 | 0.734
38 | LOU-NH91 | 0.719
39 | NCI-H2170 | 0.84
40 | NCI-H2405 | 0.749
41 | HOP-62 | 0.64
42 | LU99A | 0.506
43 | BEN | 0.897
44 | HARA | 0.804
45 | HCC-78 | 0.155
46 | NCI-H322M | 0.756
47 | LCLC-97TM1 | 0.224
48 | A-427 | 0.993
49 | NCI-H441 | 0.73
50 | NCI-H1734 | 0.725

Row | Cell Line | relative viability
51 | NCI-H460 | 0.679
52 | NCI-H2347 | 0.867
53 | NCI-H1395 | 0.941
54 | 201T | 1.06
55 | NCI-H1915 | 1.05
56 | HCC-827 | 1.11
57 | LXF-289 | 1.06
58 | NCI-H23 | 0.709
59 | NCI-H647 | 0.932
60 | CAL-12T | 1.07
61 | NCI-H1651 | 1.05
62 | NCI-H1355 | 0.798
63 | NCI-H3122 | 0.822
64 | NCI-H1437 | 1.03
65 | NCI-H1755 | 1.03

same assay, conditions: first compound 10 µM

Row | Cell Line | relative viability
66 | LK-2 | 0.541
67 | NCI-H2087 | 0.684
68 | H3255 | 0.422
69 | LOU-NH91 | 0.686
70 | NCI-H2170 | 0.543
71 | NCI-H2405 | 0.726
72 | HOP-62 | 0.603
73 | LU99A | 0.451
74 | BEN | 0.454
75 | HCC-78 | 0.104
76 | NCI-H322M | 0.772
77 | LCLC-97TM1 | 0.193
78 | A-427 | 0.785
79 | NCI-H441 | 0.496
80 | NCI-H1734 | 0.387
81 | NCI-H460 | 0.217
82 | NCI-H2347 | 0.686
83 | NCI-H1395 | 0.82
84 | 201T | 0.859
85 | NCI-H1915 | 0.984
86 | HCC-827 | 0.84
87 | LXF-289 | 0.827
88 | NCI-H647 | 0.422
89 | NCI-H1355 | 0.728
90 | NCI-H3122 | 0.573
91 | NCI-H1755 | 0.538

same assay, conditions: first compound 31.62 µM

Row | Cell Line | relative viability
92 | LK-2 | 0.665
93 | NCI-H2087 | 0.778
94 | H3255 | 0.716
95 | LOU-NH91 | 0.693
96 | NCI-H2170 | 0.684
97 | NCI-H2405 | 0.769
98 | HOP-62 | 0.22
99 | LU99A | 0.292
100 | BEN | 0.372
101 | HARA | 0.818
102 | HCC-78 | 0.326
103 | NCI-H322M | 0.673
104 | LCLC-97TM1 | 0.12
105 | A-427 | 0.412
106 | NCI-H441 | 0.271
107 | NCI-H1734 | 0.396

Row | Cell Line | relative viability
108 | NCI-H460 | 0.215
109 | NCI-H2347 | 0.694
110 | NCI-H1395 | 0.785
111 | 201T | 0.992
112 | NCI-H1915 | 1.05
113 | HCC-827 | 0.673
114 | LXF-289 | 0.811
115 | NCI-H23 | 0.775
116 | NCI-H647 | 0.246
117 | CAL-12T | 1.28
118 | NCI-H1651 | 0.769
119 | EPLC-272H | 0.828
120 | NCI-H1355 | 0.635
121 | NCI-H3122 | 0.871
122 | NCI-H1437 | 1.14
123 | NCI-H1755 | 0.92

same assay, conditions: first compound 100 µM

Row | Cell Line | relative viability
124 | LK-2 | 0.407
125 | NCI-H2087 | 0.309
126 | H3255 | 0.673
127 | LOU-NH91 | 0.56
128 | NCI-H2170 | 0.507
129 | NCI-H2405 | 0.568
130 | HOP-62 | 0.127
131 | LU99A | 0.152
132 | BEN | 0.377
133 | HARA | 0.572
134 | HCC-78 | 0.292
135 | NCI-H322M | 0.676
136 | LCLC-97TM1 | 0.112
137 | A-427 | 0.237
138 | NCI-H441 | 0.264
139 | NCI-H1734 | 0.347

Row | Cell Line | relative viability
140 | NCI-H460 | 0.115
141 | NCI-H2347 | 0.474
142 | NCI-H1395 | 0.598
143 | 201T | 0.877
144 | NCI-H1915 | 0.93
145 | HCC-827 | 0.305
146 | LXF-289 | 0.329
147 | NCI-H23 | 0.563
148 | NCI-H647 | 0.167
149 | CAL-12T | 1.1
150 | NCI-H1651 | 0.527
151 | EPLC-272H | 0.776
152 | NCI-H1355 | 0.385
153 | NCI-H3122 | 0.703
154 | NCI-H1437 | 0.319
155 | NCI-H1755 | 0.61

compound: CC(C)CCN1c2nc(Nc3cc(F)c(O)c(F)c3)ncc2N(C)C(=O)C1C [BI-D1870] + COc1cc2c(Oc3ccc(NC(=O)C4(C(=O)Nc5ccc(F)cc5)CC4)cc3F)ccnc2cc1OCCCN1CCOCC1 [Foretinib] (partner 0.25 µM); experiment: as above; settings: first compound 0.04 µM
Method in brief: as §1

Row | Cell Line | relative viability
156 | LK-2 | 1.32
157 | NCI-H2087 | 1.16
158 | H3255 | 0.784
